Reference: patent publication US10577349B2 (Sanford Burnham Prebys Medical Discovery Institute, priority 2015, dated 2020)
Several values for one entry are separate records, joined by “and”; a condition that tells them apart may be missing. Equal entries are not always repeated.

Experiments:
[1] = Blood chemistry following Compound 38 IP administration; format: in vivo; conditions: Compound 38 1 mg/kg IP, individual mice #4-#6
Excerpt: The growth of A375 tumors in immunodeficient mice subjected to either BRAFi alone or BRAFi combined with Compound 38 was monitored in vivo. Compound 38 toxicity in mice was monitored by liver function (Table 5).

eIF4F complex [2] = biological target: T1, eIF4F complex (Homo sapiens, UniProt Q04637); assay: m7GTP pull-down assay, UACC903 melanoma cells; format: cell-based
T1 construct: PLX4032), or Compound 38; endogenous in cells; host or cells: A375, A375R, Lu1205R, WM793R melanoma cells
Experimental: (§1) As previously described (Dowling R J, et al. mTORC1-mediated cell proliferation, but not cell growth, controlled by the 4E-BPs. Science. 2010; 328:1172-6), cells growing in 100 mm plates were washed (cold PBS), collected, and lysed in 50 mM MOPS/KOH (7.4), 100 mM NaCl, 50 mM NaF, 2 mM EDTA, 2 mM EGTA, 1% NP40, 1% Na-DOC, 7 mM β-mercaptoethanol, protease inhibitors and phosphatase inhibitor cocktail (Roche). Lysates were incubated with m7-GDP-agarose beads (Jena Bioscience) for 20 minutes, washed 4 times with the washing buffer containing 50 mM MOPS/KOH (7.4), 100 mM NaCl, 50 mM NaF, 0.5 mM EDTA, 0.5 mM EGTA, 7 mM (3-mercaptoethanol, 0.5 mM PMSF, 1 mM Na3VO4 and 0.1 mM GTP, and bound proteins were eluted by boiling the beads in loading buffer. m7-GDP-agarose pulled down material was analyzed by Western blot analysis.
The dissociation of eIF4G1 from the eIF4F complex was determined using m^7GTP-agarose pull-down, which captures the eIF4F complex. […] Proteins prepared from UACC903 melanoma cells were treated with indicated Compound 38 concentrations and incubated with m^7GTP-agarose beads to capture the eIF4F complex. Shown is dose-dependent inhibition of eIF4G1 binding to eIF4E, concomitant with increased binding of inhibitory 4E-BP1 to eIF4E. Bottom, the total cell lysate.

[3] = Hepatic Microsome Stability Human; format: in vitro ADME
eIF4F complex [4] = biological target: T1, eIF4F complex; assay: m7GTP pull-down assay, BRAFi-sensitive and -resistant melanoma cells; format: cell-based
Experimental: as §1
As levels of the eIF4F complex inversely correlate with the effectiveness of various cancer therapies, the integrity of the eIF4F complex after treating melanoma cells with a combination of BRAFi vemurafenib (PLX4032) and Compound 38 was assessed. […] A375 and A375R (PLX4032-resistant) cells were treated with vehicle (DMSO), a BRAFi (vemurafenib; PLX4032), or Compound 38 at the indicated doses for 24 hours. Cell lysates ([…]) were subjected to m^7GTP pull-down. Amounts of the indicated proteins in input (5%) or pull-down (50%) samples were determined by Western blotting; 3-actin served as a loading control (input) and to exclude contamination (m^7GTP pull-down).

[5] = tested on: E1A/RAS-transformed 4E-BP DKO MEFs; assay: Proliferation of E1A/Ras-transformed MEFs (BrdUrd incorporation); format: cell-based; conditions: 48 hours
Experimental: E1A/Ras-transformed WT or 4e-bp1/4e-bp2 DKO MEFs were treated with either Torin1 or Compound 38 at indicated concentrations and cell proliferation was measured 48 hours later with the aid of BrdUrd incorporation. Values were normalized to DMSO-treated triplicates. Error bars, SD (n=3).

[6] = tested on: UACC903 and WM1346 cell lines; assay: Reverse phase protein array analysis (RPPA), average of both cell lines; format: cell-based, human
Experimental: UACC903 and WM1346 cells were treated with DMSO (controls) or 1 μM Compound 38 for 24 h in triplicate. Cells were lysed with lysis buffer (1% Triton X-100, 50 mM HEPES, pH 7.4, 150 mM NaCl, 1.5 mM MgCl2, 1 mM EGTA, 100 mM NaF, 10 mM Na pyrophosphate, 1 mM Na3VO4, 10% glycerol, with freshly added protease and phosphatase inhibitors) and centrifuged at 13,000 g for 20 minutes. Denatured protein lysates containing the same amount of protein were then subjected to RPPA analysis at the RPPA Core Facility, Md. Anderson Cancer Center, as previously described (Tibes. R., et al. Reverse phase protein array: validation of a novel proteomic technology and utility for analysis of primary leukemia specimens and hematopoietic stem cells. Molecular cancer therapeutics 5, 2512-2521 (2006)),
A reverse phase protein array (RPPA) analysis of BRAF- and NRAS-mutant melanomas was performed to identify protein networks affected by Compound 38 (Table 4).

Q: What does the source list for `O=C(/C=C/c1cncc(F)c1)c1c(-c2ccccc2)c2cc(Cl)ccc2[nH]c1=O` [Compound 38, 6-Chloro-3-[3-(5-fluoro-pyridin-3-yl)-acryloyl]-4-phenyl-1H-quinolin-2-one]?
A: CRE (Kidney) [1]: <18 µmol/L; ALB (Liver) ([1]; 1 mg/kg): 32 g/L (2×) and 34 g/L; ALP (Liver) ([1]; 1 mg/kg): 88 μ/L and 54 μ/L and 24 μ/L; ALT (Liver) ([1]; 1 mg/kg): 126 μ/L and >1000 μ/L and 152 μ/L; AMY (Pancreas) ([1]; 1 mg/kg): 701 μ/L and 811 μ/L and 1625 μ/L; BUN (Kidney) ([1]; 1 mg/kg): 7.5 mmol/L and 9.9 mmol/L and 7.9 mmol/L; CA (Electrolytes) ([1]; 1 mg/kg): 2.25 mmol/L and 2.1 mmol/L and 2.14 mmol/L; GLOB (Liver) ([1]; 1 mg/kg): 10 g/L and 11 g/L (2×); GLU (General metabolism) ([1]; 1 mg/kg): 17.6 mmol/L and 13.8 mmol/L and 16.5 mmol/L; K^+ (Electrolytes) ([1]; 1 mg/kg): 5.5 mmol/L and 8 mmol/L and 6.5 mmol/L; Na^+ (Electrolytes) ([1]; 1 mg/kg): 137 mmol/L (2×) and 146 mmol/L; PHOS (Electrolytes) ([1]; 1 mg/kg): 2.4 mmol/L and 2.27 mmol/L and 1.64 mmol/L; TBIL (Liver) ([1]; 1 mg/kg): 5 μmol/L and 4 μmol/L (2×); TP (Liver) ([1]; 1 mg/kg): 42 g/L and 44 g/L and 43 g/L; dissociation of eIF4G1 from the eIF4F complex (m7GTP-agarose pull-down) (eIF4F complex [2]): dissociated eIF4G1 from the eIF4E in a dose-dependent manner; Hepatic Microsome Stability (% Remaining at 1 hr) Human [3]: 24.12 % Remaining; Hepatic Microsome Stability (% Remaining at 1 hr) Human (no NADPH) ([3]; no NADPH): 57.84 % Remaining; dissociation of eIF4G1 from eIF4E in BRAFi-resistant cells (eIF4F complex [4]; A375R, Lu1205R and WM793R cells): significantly promoted a dose dependent dissociation of eIF4G1 from eIF4E; eIF4G1 association with eIF4E (eIF4F complex [4]; A375 and A375R, 24 hours): more robust effect; amount of eIF4G1 bound to eIF4E, Compound 38/BRAFi combination (eIF4F complex [4]; combination with BRAFi PLX4032, not seen following BRAFi treatment alone): decreased the amount of eIF4G1 bound to eIF4E; proliferation of E1A/RAS-transformed 4E-BP DKO MEFs [5]: attenuated the proliferation; Ratio [Compound 38/DMSO] A-Raf, Average [6]: 0.9; Ratio [Compound 38/DMSO] AR, Average [6]: 0.82; Ratio [Compound 38/DMSO] ATM, Average [6]: 0.81; Ratio [Compound 38/DMSO] ATR, Average [6]: 0.80; Ratio [Compound 38/DMSO] BRCA2, Average [6]: 0.93; Ratio [Compound 38/DMSO] C-Raf, Average [6]: 0.92; Ratio [Compound 38/DMSO] Chk1, Average [6]: 0.91; Ratio [Compound 38/DMSO] Ets-1, Average [6]: 0.92; Ratio [Compound 38/DMSO] GCN5L2, Average [6]: 0.87; Ratio [Compound 38/DMSO] INPP4b, Average [6]: 0.9; Ratio [Compound 38/DMSO] MSH6, Average [6]: 0.77; Ratio [Compound 38/DMSO] PI3K-p85, Average [6]: 0.95; Ratio [Compound 38/DMSO] PI3K-p110-alpha, Average [6]: 0.95; Ratio [Compound 38/DMSO] Rad51, Average [6]: 0.85; Ratio [Compound 38/DMSO] Raptor, Average [6]: 0.86; Ratio [Compound 38/DMSO] Rictor_pT1135, Average [6]: 0.87; Ratio [Compound 38/DMSO] S6_pS235_S236, Average [6]: 0.67; Ratio [Compound 38/DMSO] S6_pS240_S244, Average [6]: 0.63; Ratio [Compound 38/DMSO] Stat5a, Average [6]: 0.76; Ratio [Compound 38/DMSO] Tuberin, Average [6]: 0.65; Ratio [Compound 38/DMSO] YB1, Average [6]: 0.73; Ratio [Compound 38/DMSO] c-Kit, Average [6]: 0.90; Ratio [Compound 38/DMSO] c-Myc, Average [6]: 0.76; Ratio [Compound 38/DMSO] mTOR, Average [6]: 0.80; Ratio [Compound 38/DMSO] mTOR_pS2448, Average [6]: 0.74; Ratio [Compound 38/DMSO] p70-S6K_pT389, Average [6]: 0.81
